Experimental data from BindingDB's records for doi:10.1016/j.bmcl.2007.07.028 (Bristol-Myers Squibb, 2007).

Test: Antagonist activity at CCR2 in human PBMCs assessed as inhibition of MCP1-induced chemotaxis

Row | SMILES | IC50 [nM]
1 | CCNc1ccc(C(F)(F)F)cc1C(=O)NCC(=O)N[C@@H](CNCc1ccc(C)cc1C)C(=O)NC(C)(C)C [(S)-N-(2-(3-(2,4-dimethylbenzylamino)-1-(tert-butylamino)-1-oxopropan-2-ylamino)-2-oxoethyl)-2-(ethylamino)-5-(trifluoromethyl)benzamide] | 100
2 | Cc1ccc(CNC[C@H](NC(=O)CNC(=O)c2cccc(C(F)(F)F)c2)C(N)=O)c(C)c1 [(S)-N-(2-(3-(2,4-dimethylbenzylamino)-1-amino-1-oxopropan-2-ylamino)-2-oxoethyl)-3-(trifluoromethyl)benzamide] | > 1500
3 | Cc1ccc(CNC[C@H](NC(=O)CNC(=O)c2cc(C(F)(F)F)ccc2NCc2ccccc2)C(=O)NC(C)(C)C)c(C)c1 [(S)-N-(2-(3-(2,4-dimethylbenzylamino)-1-(tert-butylamino)-1-oxopropan-2-ylamino)-2-oxoethyl)-2-(benzylamino)-5-(trifluoromethyl)benzamide] | 39
4 | Cc1ccc(CNC[C@H](NC(=O)CNC(=O)c2cc(C(F)(F)F)ccc2N)C(=O)NC(C)(C)C)c(C)c1 [(S)-N-(2-(3-(2,4-dimethylbenzylamino)-1-(tert-butylamino)-1-oxopropan-2-ylamino)-2-oxoethyl)-2-amino-5-(trifluoromethyl)benzamide] | 260
5 | Cc1ccc(CNC[C@H](NC(=O)CNC(=O)c2cc(C(F)(F)F)ccc2NC(=O)NC(C)C)C(=O)NC(C)(C)C)c(C)c1 [(S)-1-(2-((2-(3-(2,4-dimethylbenzylamino)-1-(tert-butylamino)-1-oxopropan-2-ylamino)-2-oxoethyl)carbamoyl)-4-(trifluoromethyl)phenyl)-3-isopropylurea] | 240

The next lines start with the values.

Row | IC50 [nM] | SMILES
6 | 720 | Cc1ccc(CNC[C@H](NC(=O)CNC(=O)c2cc(N)cc(C(F)(F)F)c2)C(=O)NC(C)(C)C)c(C)c1 [(S)-N-(2-(3-(2,4-dimethylbenzylamino)-1-(tert-butylamino)-1-oxopropan-2-ylamino)-2-oxoethyl)-3-amino-5-(trifluoromethyl)benzamide]
7 | > 3000 | Cc1ccc(CNC[C@H](NC(=O)CNC(=O)c2cccc(C(F)(F)F)c2)C(=O)NC(C)(C)C)c(C)c1 [(S)-N-(2-(3-(2,4-dimethylbenzylamino)-1-(tert-butylamino)-1-oxopropan-2-ylamino)-2-oxoethyl)-3-(trifluoromethyl)benzamide]
8 | 190 | CCNc1cc(C(=O)NCC(=O)N[C@@H](CNCc2ccc(C)cc2C)C(=O)NC(C)(C)C)cc(C(F)(F)F)c1 [(S)-N-(2-(3-(2,4-dimethylbenzylamino)-1-(tert-butylamino)-1-oxopropan-2-ylamino)-2-oxoethyl)-3-(ethylamino)-5-(trifluoromethyl)benzamide]
